The target in experiment [1] is T1, human recombinant GST cleaved CSNK1D (Homo sapiens, UniProt P48730).
T1 construct: GST (cleaved yes); purchased University of Dundee clone DU 19064
The experiment can be described thus: Purified Enzyme Assay (ADP-Glo CSNK1D Kinase Assay). Format: biochemical. Conditions: 2 nM CSNK1D; peptide substrate 150 μM; ATP 20 μM; 45 minutes at room temperature. In a few lines:
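Percent activity derived from ADP-Glo quantification of ADP produced. Reactions: compound dose-response with human recombinant GST-cleaved CSNK1D, ATP and substrate peptide PLSRTL-pS-VASLPGL, incubated 45 min at room temperature.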
For orientation: ADP-Glo turns the ADP formed in a reaction into a luminescent signal.

In another experiment the target is T2, human CSNK1D (Homo sapiens, UniProt P48730).
T2 construct: expressed in transfected cells
The experiment can be described thus: Whole Cell nBRET CSNK1D Binding Assay. To be noted: living CHO cells stably expressing human CSNK1D tagged with nanoluciferase; NanoBret tracer 130 nM; 2 hours at 37 C.

For orientation: IC50 means the point on the concentration scale where inhibition reaches its midpoint.

T2 sequence (P48730 whole entry): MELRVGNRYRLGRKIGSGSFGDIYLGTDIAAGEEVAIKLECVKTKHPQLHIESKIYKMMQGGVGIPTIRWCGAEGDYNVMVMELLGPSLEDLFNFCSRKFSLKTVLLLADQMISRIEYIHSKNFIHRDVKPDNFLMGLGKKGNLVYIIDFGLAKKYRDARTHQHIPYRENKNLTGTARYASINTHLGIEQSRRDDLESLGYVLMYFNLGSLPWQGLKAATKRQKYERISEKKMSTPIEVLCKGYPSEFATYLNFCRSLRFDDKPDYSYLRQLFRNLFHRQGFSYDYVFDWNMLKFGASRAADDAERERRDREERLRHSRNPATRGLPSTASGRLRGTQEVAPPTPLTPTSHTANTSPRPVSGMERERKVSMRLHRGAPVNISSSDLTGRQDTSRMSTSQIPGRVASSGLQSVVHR
T1 sequence (P48730 whole entry): as above

As to `Fc1ccc(-c2nn3c(c2-c2ccnc4[nH]ncc24)CCC(F)(COC(F)F)C3)nc1` (single isomer, unassigned) [Example 314, (*S)-4-(6-((Difluoromethoxy)methyl)-6-fluoro-2-(5-fluoropyridin-2-yl)-4,5,6,7-tetrahydropyrazolo[1,5-a]pyridin-3-yl)-1H-pyrazolo[3,4-b]pyridine], the half-inhibitory concentration (IC50) in experiment [1] worked out at 4 nM; on human CSNK1D, 14 nM.
Regarding `C[C@H]1CCc2c(-c3ccnc4[nH]ncc34)c(-c3ccc(F)cn3)nn21` [Example 19, 4-[(6S)-2-(5-Fluoro-2-pyridyl)-6-methyl-5,6-dihydro-4H-pyrrolo[1,2-b]pyrazol-3-yl]-1H-pyrazolo[3,4-b]pyridine], the IC50 amounted to 8 nM in experiment [1] and 192 nM at human CSNK1D.
As for `CC1(C)Cc2c(-c3ccnc4[nH]ccc34)c(-c3ccc(F)cn3)nn2C1` [Example 233, 4-[2-(5-Fluoro-2-pyridyl)-5,5-dimethyl-4,6-dihydropyrrolo[1,2-b]pyrazol-3-yl]-1H-pyrrolo[2,3-b]pyridine], the IC50 came to 2 nM in experiment [1] and 7 nM on human CSNK1D.
`Fc1ccc(-c2nn3c(c2-c2ccnc4[nH]ncc24)CCC2(C3)CC2(F)F)cc1` (single isomer, unassigned) [Example 325, (*R)-2,2-Difluoro-2′-(4-fluorophenyl)-3′-(1H-pyrazolo[3,4-b]pyridin-4-yl)-4′,5′-dihydro-7′H-spiro[cyclopropane-1,6′-pyrazolo[1,5-a]pyridine]]: the 50% inhibitory concentration (IC50) (in experiment [1]; on human CSNK1D) was 1 nM throughout.
With `[2H]C([2H])([2H])C1(C([2H])([2H])[2H])Cn2nc(-c3ccc(F)cn3)c(-c3c(F)cnc4[nH]ccc34)c2CO1` [Example 397, 3-(5-Fluoro-1H-pyrrolo[2,3-b]pyridin-4-yl)-2-(5-fluoropyridin-2-yl)-6,6-bis(methyl-d3)-6,7-dihydro-4H-pyrazolo[5,1-c][1,4]oxazine], the figures for the IC50 (in experiment [1]; on human CSNK1D) were 2 nM and 11 nM, respectively.
On to `CCC(=O)Nc1cc(-c2c(-c3ccc(F)cn3)nn3c2OCCC3C)ccn1` (centres unmarked) [Example 445, N-(4-(2-(5-Fluoropyridin-2-yl)-7-methyl-6,7-dihydro-5H-pyrazolo[5,1-b][1,3]oxazin-3-yl)pyridin-2-yl)propionamide], for which the IC50 was 10 nM in experiment [1] and 210 nM at human CSNK1D.
In the case of `Cc1n[nH]c2ncc(F)c(-c3c(-c4ccc(F)cn4)nn4c3CC[C@@H]3C[C@@H]34)c12` (single isomer, unassigned) [Example 345, (5a*R,6a*S)-3-(5-Fluoro-3-methyl-1H-pyrazolo[3,4-b]pyridin-4-yl)-2-(5-fluoropyridin-2-yl)-5,5a,6,6a-tetrahydro-4H-cyclopropa[e]pyrazolo[1,5-a]pyridine], the half-maximal inhibitory concentration (IC50) came out at 34 nM in experiment [1] and 368 nM at human CSNK1D.
The matching figures for `O=C1OCCn2nc(-c3ccc(F)cc3)c(-c3ccnc4[nH]ncc34)c21` [Example 181, 2-(4-Fluorophenyl)-3-(1H-pyrazolo[3,4-b]pyridin-4-yl)-6,7-dihydropyrazolo[5,1-c][1,4]oxazin-4-one]: 32 nM and 3240 nM.
On to `Cc1cc(-c2c(-c3ccc(F)cc3)nn3c2OCCCC3)c2cn[nH]c2n1` [Example 217, 2-(4-Fluorophenyl)-3-(6-methyl-1H-pyrazolo[3,4-b]pyridin-4-yl)-5,6,7,8-tetrahydropyrazolo[5,1-b][1,3]oxazepane], for which the results for the IC50 (in experiment [1]; at human CSNK1D) were 2 nM and 25 nM, respectively.
`Fc1ccc(-c2nn3c(c2-c2ccnc4[nH]ncc24)COC2(C3)CC2(F)F)nc1` (single isomer, unassigned) [Example 434, (*S)-1′. 1′-Difluoro-2-(5-fluoro-2-pyridyl)-3-(1H-pyrazolo[3,4-b]pyridin-4-yl)spiro[4,7-dihydropyrazolo[5,1-c][1,4]oxazine-6,2′-cyclopropane]]: the results for the 50% inhibitory concentration (IC50) (in experiment [1]; on human CSNK1D) were 165 nM and 8290 nM, respectively.
The corresponding values for `C[C@H]1Cn2nc(-c3ccc(F)cc3)c(-c3ccnc4[nH]ncc34)c2CO1` (single isomer, unassigned) [Example 81, (*)-2-(4-Fluorophenyl)-6-methyl-3-(1H-pyrazolo[3,4-b]pyridin-4-yl)-6,7-dihydro-4H-pyrazolo[5,1-c][1,4]oxazine] are 2 nM and 48 nM.
The matching figures for `[2H]C([2H])([2H])C1(C([2H])([2H])[2H])Cc2c(-c3cc(C)nc4[nH]ncc34)c(-c3ccc(F)cc3)nn2C1` [Example 242, 4-[2-(4-Fluorophenyl)-5,5-bis(methyl-d3)-4,6-dihydropyrrolo[1,2-b]pyrazol-3-yl]-6-methyl-1H-pyrazolo[3,4-b]pyridine]: 2 nM and 4 nM.
`CC1(C)COc2c(-c3ccnc4ccsc34)c(-c3ccc(F)cn3)nn2C1` [Example 214, 2-(5-Fluoropyridin-2-yl)-6,6-dimethyl-3-(thieno[3,2-b]pyridin-7-yl)-6,7-dihydro-5H-pyrazolo[5,1-b][1,3]oxazine]: the IC50 was found to be 9 nM in experiment [1] and 75 nM on human CSNK1D.
As for `CC[C@@H]1Cn2nc(-c3ccc(F)cn3)c(-c3ccnc4[nH]ncc34)c2CO1` (single isomer, unassigned) [Example 95, (*R)-6-Ethyl-2-(5-fluoropyridin-2-yl)-3-(1H-pyrazolo[3,4-b]pyridin-4-yl)-6,7-dihydro-4H-pyrazolo[5,1-c][1,4]oxazine], the IC50 in experiment [1] came out at 19 nM; at human CSNK1D, 557 nM.
In the case of `Cc1cc(-c2c(-c3ccc(F)cn3)nn3c2O[C@@H](C)C[C@H]3C)c2cn[nH]c2n1` (single isomer, unassigned) [Example 206, (5*S,7*R)-2-(S-Fluoro-2-pyridyl)-5,7-dimethyl-3-(6-methyl-1H-pyrazolo[3,4-b]pyridin-4-yl)-6,7-dihydro-5H-pyrazolo[5,1-b][1,3]oxazine], the half-maximal inhibitory concentration (IC50) in experiment [1] came out at 14 nM; on human CSNK1D, 249 nM.
On to `Fc1ccc(-c2nn3c(c2-c2ccnc4[nH]ncc24)CCC(F)(F)C3)nc1` [Example 44, 4-(6,6-Difluoro-2-(5-fluoropyridin-2-yl)-4,5,6,7-tetrahydropyrazolo[1,5-a]pyridin-3-yl)-1H-pyrazolo[3,4-b]pyridine], for which the IC50 was 16 nM in experiment [1] and 296 nM on human CSNK1D.
With `CC(=O)Nc1cc(-c2c(-c3ccc(F)cc3)nn3c2OCCCC3)ccn1` [Example 215, N-(4-(2-(4-Fluorophenyl)-5,6,7,8-tetrahydropyrazolo[5,1-b][1,3]oxazepin-3-yl)pyridin-2-yl)acetamide], the values for the IC50 (in experiment [1]; on human CSNK1D) were 1 nM and 28 nM, respectively.
Consider `Cc1nc2[nH]nc(C)c2c(-c2c(-c3ccc(F)cn3)nn3c2CC2(C3)CC2(F)F)c1F` (single isomer, unassigned) [Example 265, (*R)-1′.1′-Difluoro-3-(5-fluoro-3,6-dimethyl-1H-pyrazolo[3,4-b]pyridin-4-yl)-2-(5-fluoro-2-pyridyl)spiro[4,6-dihydropyrrolo[1,2-b]pyrazole-5,2′-cyclopropane]], for which the IC50 in experiment [1] was 10 nM; on human CSNK1D, 37 nM.
For `Fc1cnc(-c2nn3c(c2-c2ccnc4[nH]ncc24)OCCC3)c(F)c1` [Example 188, 2-(3,5-Difluoro-2-pyridyl)-3-(1H-pyrazolo[3,4-b]pyridin-4-yl)-6,7-dihydro-5H-pyrazolo[5,1-b][1,3]oxazine], the IC50 in experiment [1] turned out to be 12 nM; on human CSNK1D it was 139 nM.
With `COC[C@]1(F)CCc2c(-c3cc(C)nc4[nH]ncc34)c(-c3ccc(F)cn3)nn2C1` (single isomer, unassigned) [Example 53, (*S)-4-(6-Fluoro-2-(5-fluoropyridin-2-yl)-6-(methoxymethyl)-4,5,6,7-tetrahydropyrazolo[1,5-a]pyridin-3-yl)-6-methyl-1H-pyrazolo[3,4-b]pyridine], the IC50 was 4 nM in experiment [1] and 31 nM on human CSNK1D.
With `CCn1ncc2cc(-c3c(-c4ccc(F)cn4)nn4c3CCC4)cnc21` [Example 223, 1-Ethyl-5-(2-(5-fluoropyridin-2-yl)-5,6-dihydro-4H-pyrrolo[1,2-b]pyrazol-3-yl)-1H-pyrazolo[3,4-b]pyridine], the figures for the concentration for half-maximal inhibition (IC50) (in experiment [1]; on human CSNK1D) were 22 nM and 894 nM, respectively.
For the molecule `COCC1(F)CCc2c(-c3c(F)cnc4[nH]ncc34)c(-c3ccc(F)cn3)nn2C1` (single isomer, unassigned) [Example 302, (*S)-5-Fluoro-4-[6-fluoro-2-(5-fluoro-2-pyridyl)-6-(methoxymethyl)-5,7-dihydro-4H-pyrazolo[1,5-a]pyridin-3-yl]-1H-pyrazolo[3,4-b]pyridine], the half-inhibitory concentration (IC50) was 132 nM in experiment [1] and 3250 nM on human CSNK1D.
Turning to `Fc1ccc(-c2nn3c(c2-c2ccnc4[nH]ncc24)[C@H](Cl)C[C@]2(C3)CC2(F)F)nc1` (single isomer, unassigned) [Example 338, (1*S,4′*R)-4′-Chloro-2,2-difluoro-2′-(5-fluoropyridin-2-yl)-3′-(1H-pyrazolo[3,4-b]pyridin-4-yl)-4′,5′-dihydro-7′H-spiro[cyclopropane-1,6′-pyrazolo[1,5-a]pyridine]], the values for the IC50 (in experiment [1]; at human CSNK1D) were 5 nM and 72 nM, respectively.
For `Fc1ccc(-c2nn3c(c2-c2ccnc4[nH]ccc24)COCC3)cc1` [Example 69, 2-(4-Fluorophenyl)-3-(1H-pyrrolo[2,3-b]pyridin-4-yl)-6,7-dihydro-4H-pyrazolo[5,1-c][1,4]oxazine], the IC50 in experiment [1] came out at 7 nM; at human CSNK1D, 43 nM.
With `Cc1cc(-c2c(-c3ccc(F)cc3)nn3c2CC[C@@H]3C)c2cn[nH]c2n1` [Example 17, 4-[(6S)-2-(4-Fluorophenyl)-6-methyl-5,6-dihydro-4H-pyrrolo[1,2-b]pyrazol-3-yl]-6-methyl-1H-pyrazolo[3,4-b]pyridine], the IC50 in experiment [1] was 1 nM; at human CSNK1D it was 12 nM.

Values taken from US20230339970A1, “CASEIN KINASE 1 DELTA MODULATORS” (priority 2020, published 2023).
